Results as given in article PMC9001978, “Determining the Effects of Differential Expression of GRKs and β-arrestins on CLR-RAMP Agonist Bias” (Frontiers in Physiology, 2022).
Entries after “also recorded” stand apart in the source; their conditions may differ.

Assays:
[1] = test system: Glucagon-like peptide-1 receptor (GLP-1R); assay: Effect on GLP-1R internalisation; format: cell-based; conditions: 100 μM, 30 min preincubation
CLR-RAMP complexes [2] = assay: Effect of barbadin on cAMP accumulation at CLR-RAMP complexes; format: cell-based; conditions: all agonists, three CLR-RAMP complexes
CLR-RAMP complexes [3] = assay: Effect of barbadin on CLR-RAMP internalisation; format: cell-based; conditions: any CLR-RAMP complex, at concentration that blocked GLP-1R internalisation
CLR-RAMP complexes [4] = assay: Effect of barbadin on cAMP accumulation in β-arrestin KO HEK293 cells; format: cell-based; conditions: 100 μM barbadin
5-HT2CR = conditions: ref He et al., 2021; cited from earlier work
[5] = test system: V2-vasopressin receptor (V2R); conditions: ref Beautrait et al., 2017; cited from earlier work
Excerpt: (§1) The data we have obtained related to agonist-dependent internalisation of CLR in the presence of barbadin (Figure 3C) appear contradictory when compared to our results obtained with the HEK293∆β-arr1/2 cell lines (Figure 4A).

[6] = test system: angiotensin-II type-1 receptor (AT1R); conditions: ref Beautrait et al., 2017; cited from earlier work
Excerpt: as §1

[7] = test system: protease-activated receptor 2 (PAR2); conditions: ref Jung et al., 2021; cited from earlier work
Excerpt: as §1

[8] = test system: β2-adrenergic receptor (β2AR); conditions: ref Beautrait et al., 2017; cited from earlier work
Excerpt: as §1

[9] = test system: free fatty acid receptor 2 (FFAR2); conditions: ref Wang et al., 2020; cited from earlier work
β-arrestin-AP2 complex = conditions: ref Beautrait et al., 2017; cited from earlier work
Excerpt: The canonical role of β-arrestins is the desensitisation of G protein signalling; steric hindrance to disrupt G protein-receptor association and acting as scaffolds for proteins which decrease the G protein activity and output e.g. phosphodiesterases (PDEs) ([Perry et al., 2002]). Additionally, β-arrestins mediate agonist dependent internalisation at many GPCRs, through the recruitment of β2-adaptin (AP2) and subsequently clathrin, to mediate endocytosis. […] Barbadin is an inhibitor of the β-arresti ...

- Effect on GLP-1R internalisation [1]: successfully block
- Effect on GLP-1R internalisation ([1]; listed as barbadin): inhibit GLP-1R internalisation
SMILES: Nn1cnc2scc(-c3ccc(Cc4ccccc4)cc3)c2c1=O [Barbadin]
- Effect of barbadin on cAMP accumulation (CLR-RAMP complexes [2]): reduce cAMP accumulation
- Effect of barbadin on cAMP accumulation (CLR-RAMP complexes [2]; listed as barbadin): significantly reduce cAMP accumulation; also recorded: significantly attenuated cAMP signalling
- Effect of barbadin on agonist-mediated CLR internalisation (CLR-RAMP complexes [3]): did not block agonist-mediated CLR internalisation; also recorded: no effect on receptor internalisation
- Effect of barbadin on cAMP accumulation (CLR-RAMP complexes [4]): agonist dependent reduction in cAMP accumulation
- Block of receptor internalisation (5-HT2CR): successfully block
- Block of receptor internalisation [5]: successfully block
- Block of receptor internalisation [6]: successfully block
- Block of receptor internalisation [7]: successfully block
- Block of receptor internalisation [8]: successfully block
- Block of receptor internalisation [9]: successfully block
- Effect on β-arrestin recruitment (β-arrestin-AP2 complex): without inhibiting β-arrestin recruitment
- Inhibition of β-arrestin-AP2 interaction (β-arrestin-AP2 complex): inhibitor of the β-arrestin-AP2 interacting domain
